Assay results taken from US10688085B2, “Use of statin-based drug for treatment of EML4-ALK-positive non-small cell lung cancer progressing on ALK inhibitor” (University-Industry Foundation, Yonsei University, priority 2016, dated 2020).

Key:
[1] = tested on: CR pool, CR #1, and CR #3 cell lines; assay: Cell proliferation after adding mevalonate pathway byproducts to cerivastatin-treated cells; assay type: cell-based; conditions: CR #1, CR #3, byproduct added after cerivastatin treatment
From the text: A statin-based drug is a suppressor of HMG-CoA reductase which is an enzyme converting 3-hydroxy-3-methylglutaryl coenzyme A (HMG-CoA) into mevalonic acid in the mevalonate pathway, and is known as a cholesterol-lowering agent, but is known to affect various intracellular signaling processes by suppressing the production of isoprenoids (Farnesyl pyrophosphate; […] GGPP) acting as a substrate for isoprenylation of a target protein among final byproducts of the mevalonate pathway in addition to cholesterol. Thus, after the present research team treated H3122 parental, CR pool, CR #1, and CR #3 cell lines with cerivastatin in order to see which one of the byproducts mediated by the mevalonate pathway is involved in acquiring resistance to an ALK inhibitor, the proliferation of cells was identified after mevalonate, GGPP, FPP, and squalene, which are byproducts of each step, were each added. The results are illustrated in FIG. 6A.

[2] = tested on: p21, cleaved PARP, and cleaved caspase 3; assay: Western blot of p21 and apoptosis-related proteins, crizotinib-resistant cell lines; assay type: cell-based
YAP = assay: Western blot of YAP phosphorylation, crizotinib-resistant cell line; assay type: cell-based
From the text: YAP is accumulated in the nucleus to form a complex with TEAD when phosphorylation is suppressed, and is known as an oncogene which promotes the excessive proliferation of cancer cells and the metastasis of cancer by inducing the expression of a gene associated with cancer. In addition, YAP as a transcription factor has been reported to be involved even in the expression of EGFR and an EGFR ligand. Recently, it has been reported that the mevalonate pathway which is an important mechanism in cancer cell metabolism regulates YAP activity, and particularly, geranylgeranylation may directly affect YAP activity. […] The results are illustrated in FIG. 7. FIGS. 7A and 7B identify the expression pattern of YAP when GGPP and […] are treated, respectively through a western blot, and FIG. 7C illustrates whether YAP moves into the nucleus through an immunocytochemistry analysis.

[3] = tested on: p21, cleaved caspase 3, PARP, YAP; assay: Western blot of p21, cleaved caspase 3, PARP and YAP, ceritinib-resistant cell line; assay type: cell-based; conditions: cell line resistant to ceritinib
[4] = tested on: cell line resistant to the ALK inhibitor; assay: Evaluation of antitumor efficacy of statin-based drugs; conditions: cell line resistant to the ALK inhibitor versus parental
From the text: The results are illustrated in FIG. 4A.

[5] = tested on: cell line that has acquired resistance to crizotinib; assay: Cell survival rate of cell line that has acquired resistance to crizotinib after ALK/EGFR inhibitor treatment; assay type: cell-based; conditions: crizotinib-resistant H3122 cell line
Experimental: Subsequently, studies on the mechanism of acquiring resistance to an ALK inhibitor in the Experimental Examples were carried out by representatively using CR pool, CR #1, and CR #3.

AKT and ERK = assay: Immunoblot of lower and bypass signaling pathway of ALK, ceritinib-resistant cell line; assay type: cell-based; conditions: cell line resistant to ceritinib
H3122 parental cells = assay: FDA approved drug library growth inhibition selection, parental cells; assay type: cell-based; conditions: 1 μM for 72 hours
H3122 CR pool cells = assay: FDA approved drug library growth inhibition selection, resistant cells; assay type: cell-based; conditions: 1 μM for 72 hours
EGFR = assay: Western blot of EGFR activity after verteporfin; assay type: cell-based; conditions: cell line that has acquired resistance to an ALK inhibitor; pretreatment with verteporfin
From the text: The results are illustrated in FIG. 12.

vimentin = assay: Western blot of vimentin expression; assay type: cell-based; conditions: cell lines resistant to an ALK inhibitor
From the text: The results are illustrated in FIG. 13.

[6] = added to cerivastatin-treated cells

Molecule: CC(C)=CCC/C(C)=C/CC/C(C)=C/COP(=O)(O)OP(=O)(O)O [FPP, Farnesyl pyrophosphate]
- proliferation of cells suppressed by cerivastatin [1]: did not have any effect

Molecule: CC(C)=CCC/C(C)=C/CC/C(C)=C/CC/C(C)=C/COP(=O)(O)OP(=O)(O)O [GGPP, Geranylgeranyl pyrophosphate]
- expression of cleaved PARP increased by cerivastatin [2, 6]: again decreased
- expression of cleaved caspase 3 increased by cerivastatin [2, 6]: again decreased
- expression of p21 increased by cerivastatin [2, 6]: again decreased
- proliferation of cells suppressed by cerivastatin [1]: restored
- phosphorylation of YAP (YAP; added together with cerivastatin): again reduced

Molecule: COC(=O)[C@H](CC(C)C)NC(=O)c1ccc(NC[C@@H](N)CS)cc1-c1cccc2ccccc12 [GGTI-298]
- expression of cleaved PARP ([2]; western blot, agent alone): concentration dependently induced
- expression of cleaved caspase 3 ([2]; western blot, agent alone): concentration dependently induced
- expression of p21 ([2]; western blot, agent alone): concentration dependently induced
- phosphorylation of YAP (YAP; western blot, agent alone): increasing
- expression of PARP [3]: concentration-dependently induced
- expression of p21 [3]: concentration-dependently induced

Molecule: CC(C)c1c(C(=O)Nc2ccccc2)c(-c2ccccc2)c(-c2ccc(F)cc2)n1CC[C@@H](O)C[C@@H](O)CC(=O)O [atorvastatin]
- antitumor efficacies [4]: specifically exhibited antitumor efficacies against a cell line resistant to the ALK inhibitor

Molecule: Cc1cc(Nc2ncc(Cl)c(Nc3ccccc3S(=O)(=O)C(C)C)n2)c(OC(C)C)cc1C1CCNCC1 [ceritinib]
- proliferation of the cell line that had acquired resistance (cell survival rate) [5]: not suppressed
- activity of AKT (AKT and ERK): not suppressed
- activity of ERK (AKT and ERK): not suppressed

Molecule: CC(=O)O[C@@]12CO[C@@H]1C[C@H](O)[C@@]1(C)C(=O)[C@H](O)C3=C(C)[C@@H](OC(=O)[C@H](O)[C@@H](NC(=O)OC(C)(C)C)c4ccccc4)C[C@@](O)([C@@H](OC(=O)c4ccccc4)[C@H]21)C3(C)C [docetaxel]
- growth of cells (H3122 parental cells): suppressed the growth
- growth of cells (H3122 CR pool cells): suppressed the growth

Molecule: COc1cccc2c1C(=O)c1c(O)c3c(c(O)c1C2=O)C[C@@](O)(C(=O)CO)C[C@@H]3O[C@H]1C[C@H](N)[C@H](O)[C@H](C)O1 [doxorubicin]
- growth of cells (H3122 parental cells): suppressed the growth
- growth of cells (H3122 CR pool cells): suppressed the growth

Molecule: CC(O)(CCO)CC(=O)O (stereo not shown) [mevalonate]
- proliferation of cells suppressed by cerivastatin [1]: restored

Molecule: CC(C)c1nc(N(C)S(C)(=O)=O)nc(-c2ccc(F)cc2)c1/C=C/[C@@H](O)C[C@@H](O)CC(=O)O [rosuvastatin]
- antitumor efficacies [4]: specifically exhibited antitumor efficacies against a cell line resistant to the ALK inhibitor

Molecule: CC(C)=CCC/C(C)=C/CC/C(C)=C/CC/C=C(\C)CC/C=C(\C)CCC=C(C)C [squalene]
- proliferation of cells suppressed by cerivastatin [1]: did not have any effect

Molecule: verteporfin
- activity of EGFR (EGFR): concentration-dependently suppressed
- expression of vimentin (vimentin): clearly decreased
